Measured values as given in patent US20080090756A1, “Somatostatin agonists” (The Administrators of the Tulane Educational Fund, priority 2001, published 2008).
Bridge positions count the residues as written; N and C are the ends. Square brackets hold non-standard residues; d marks the D form. Peptide text beside a SMILES is read from it. dNMeW = CN[C@H](Cc1c[nH]c2ccccc12)C(=O)O; NMeY = CN[C@@H](Cc1ccc(O)cc1)C(=O)O; NMeF = CN[C@@H](Cc1ccccc1)C(=O)O; NMeT = CN[C@H](C(=O)O)[C@@H](C)O; NMeK = CN[C@@H](CCCCN)C(=O)O; NMeC = CN[C@@H](CS)C(=O)O

Columns and labels:
hSSTR-3 = target: T1, hSSTR-3 (Homo sapiens, UniProt P32745); assay: Radioligand binding assay, cloned human somatostatin receptor type 3; settings: CHO-K1 cell membranes, displacement of [125I]Tyr11-SRIF; mean ± SEM, single values = one experiment; read-out: Kd ± SEM hsst3
T1 construct: each containing the entire coding region of the full-length receptors; expressed in transfected cells
Text: (§1) Functional Expression of the Cloned Human Somatostatin Receptors. The genomic clones containing the human somatostatin receptors (hSSTR-1 to hSSTR-5) (Yamada, Y., et al. al., Proc. Natl. Acad. Sci. USA. 1992, 89, 251-255; Yasuda, K., et al., J. Biol. Chem. 1992, 267, 20422-20428; Yamada, Y., et al., Mol. Pharmacol. 1992, 42, 2136-2142; Rohrer, L., et al., Proc. Natl. Acad. Sci. USA. 1993, 90, 4196-4200.) were kindly provided by Dr. Graeme I. Bell of the University of Chicago. The hSSTR-1, hSSTR-2, hSSTR-3, hSSTR-4 and hSSTR-5 cDNAs were isolated as a 1.5-kb PstI-XmnI fragment, 1.7-kb BamHI-HindIII fragment, 2.0-kb NcoI-HindIII fragment, 1.4-kb NheI-NdeI fragment, and a 1.2-kb HindIII-XbaI fragment, respectively, each containing the entire coding region of the full-length receptors. These fragments were independently subcloned into the corresponding restriction endonuclease sites in the mammalian expression vector pCMV5, downstream from the human cytomegalovirus (CMV) promoter, to produce the expression plasmids pCMV5/hSSTR-1, pCMV5/hSSTR-2, pCMV5/hSSTR-3, pCMV5/hSSTR-4 and pCMV5/hSSTR-5. For transfection into CHO-K1 cells, a plasmid, pRSV-neo (American Type Culture Collection, Rockville, Md.), carrying the neomycin mammalian cell selectable marker was added.
(§2) Receptor Expression and Transfection. Transfections were performed by the calcium phosphate method. CHO-K1 cells were maintained in α-minimum essential medium (α-MEM; Gibco) supplemented with 10% fetal calf serum and transfected with each of the expression plasmids using calcium phosphate precipitation. Clones that had inherited the expression plasmid were selected in α-MEM supplemented with 500 μg mL^−1 of geneticin (G418; Gibco). Independent CHO-K1 clones were picked by glass-ring cloning and expanded in culture in the selective media. Membranes were prepared from the isolated clones and hSSTR expression was initially assessed for binding with [^125I]Tyr^11-SRIF and [^125I]MK-678 (for SSTR-2).
(§3) Radioligand Binding Assays. Cell membranes of the 5 cells types were obtained from homogenates (Polytron setting 6, 15 sec) of the corresponding CHO-K1 cells, in ice-cold Tris-HCl (50 mM) and centrifuged (39000 g, 10 min×2), with an intermediate resuspension in fresh buffer. The final pellets were resuspended in Tris-HCl (10 mM) for assay. Aliquots of the membranes were incubated (30 min at 37° C.) with 0.05 nM [^125I]Tyr^11-SRIF (types 1, 3, 4, 5) or [^125I]MK-678 (type 2) in […] (pH 7.4) containing BSA (10 mg mL^−1); MgCl2 (5 mM), Trasylol (200 kIU mL^−1), bacitracin (0.02 mg mL^−1), and phenylmethanesulfonyl fluoride (0.02 mg mL^−1). The final assay volume was 0.3 mL and incubations were terminated by rapid filtration through GF/C filters pre-soaked in 0.3% poly(ethylenimine) using a Brandel rapid filtration module. Each tube and filter was then washed with aliquots of cold buffer (3×5 mL).
(§4) Specific binding is defined as the total radioligand bound minus that bound in the presence of 1.0 μM SRIF. The following total radioligand binding and non-specific binding (nsb) values were typically obtained with these assay systems: hSSTR-1, 7000 cpm total versus 3500 cpm nsb; hSSTR-2, 9000 cpm total versus 1000 cpm nsb; hSSTR-3, 8000 cpm total versus 1000 cpm nsb; hSSTR-4, 6000 cpm total versus 3500 cpm nsb; and hSSTR-5, 7500 cpm total versus 3500 cpm nsb. The binding affinities are expressed as Ki values ±SEM (nM) for each of the five receptor subtypes. Ki values derived for representative compounds of the instant invention are detailed in Table 2.
(§5) The binding affinities (Kd, nM) of all SRIF analogues were determined using their concentration-dependent displacement of ^125I-radiolabeled peptide ligands from membranes isolated from CHO cells transfected with the corresponding human somatostatin receptor.

hSSTR-2 = target: T2, hSSTR-2 (Homo sapiens, UniProt P30874); assay: Radioligand binding assay, cloned human somatostatin receptor type 2; settings: CHO-K1 cell membranes, displacement of [125I]MK-678; mean ± SEM, single values = one experiment; read-out: Kd ± SEM hsst2
T2 construct: each containing the entire coding region of the full-length receptors; expressed in transfected cells
Text: as §1, §2, §3, §4, §5

hSSTR-5 = target: T3, hSSTR-5 (Homo sapiens, UniProt P35346); assay: Radioligand binding assay, cloned human somatostatin receptor type 5; settings: CHO-K1 cell membranes, displacement of [125I]Tyr11-SRIF; mean ± SEM, single values = one experiment; read-out: Kd ± SEM hsst5
T3 construct: each containing the entire coding region of the full-length receptors; expressed in transfected cells
Text: as §1, §2, §3, §4, §5

hSSTR-1 = target: T4, hSSTR-1 (Homo sapiens, UniProt P30872); assay: Radioligand binding assay, cloned human somatostatin receptor type 1; settings: CHO-K1 cell membranes, displacement of [125I]Tyr11-SRIF; mean ± SEM, single values = one experiment; read-out: Kd ± SEM hsst1
T4 construct: each containing the entire coding region of the full-length receptors; expressed in transfected cells
Text: as §1, §2, §3, §4, §5

hSSTR-4 = target: T5, hSSTR-4 (Homo sapiens, UniProt P31391); assay: Radioligand binding assay, cloned human somatostatin receptor type 4; settings: CHO-K1 cell membranes, displacement of [125I]Tyr11-SRIF; mean ± SEM, single values = one experiment; read-out: Kd ± SEM hsst4
T5 construct: each containing the entire coding region of the full-length receptors; expressed in transfected cells
Text: as §1, §2, §3, §4, §5

T2 sequence (P30874 whole entry): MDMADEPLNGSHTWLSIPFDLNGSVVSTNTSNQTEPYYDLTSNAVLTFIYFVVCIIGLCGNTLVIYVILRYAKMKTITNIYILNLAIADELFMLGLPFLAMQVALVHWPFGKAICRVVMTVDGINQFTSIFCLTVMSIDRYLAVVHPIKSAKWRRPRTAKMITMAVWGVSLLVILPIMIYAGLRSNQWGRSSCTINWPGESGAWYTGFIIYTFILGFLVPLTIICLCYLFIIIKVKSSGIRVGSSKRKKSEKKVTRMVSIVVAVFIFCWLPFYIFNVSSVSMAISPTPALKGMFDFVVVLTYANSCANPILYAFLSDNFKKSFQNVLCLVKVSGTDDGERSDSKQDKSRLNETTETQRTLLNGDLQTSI
T4 sequence (P30872 whole entry): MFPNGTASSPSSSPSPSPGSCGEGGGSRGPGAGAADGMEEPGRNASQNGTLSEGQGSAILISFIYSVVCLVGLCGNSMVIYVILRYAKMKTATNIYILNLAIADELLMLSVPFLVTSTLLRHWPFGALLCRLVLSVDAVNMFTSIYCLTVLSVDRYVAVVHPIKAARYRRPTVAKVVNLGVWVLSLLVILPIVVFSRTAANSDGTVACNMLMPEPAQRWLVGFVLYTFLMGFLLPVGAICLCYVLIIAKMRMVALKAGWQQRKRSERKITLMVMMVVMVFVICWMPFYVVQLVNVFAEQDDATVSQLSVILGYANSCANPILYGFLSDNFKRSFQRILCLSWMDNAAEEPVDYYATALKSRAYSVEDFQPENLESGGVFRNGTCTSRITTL
T1 sequence (P32745 whole entry): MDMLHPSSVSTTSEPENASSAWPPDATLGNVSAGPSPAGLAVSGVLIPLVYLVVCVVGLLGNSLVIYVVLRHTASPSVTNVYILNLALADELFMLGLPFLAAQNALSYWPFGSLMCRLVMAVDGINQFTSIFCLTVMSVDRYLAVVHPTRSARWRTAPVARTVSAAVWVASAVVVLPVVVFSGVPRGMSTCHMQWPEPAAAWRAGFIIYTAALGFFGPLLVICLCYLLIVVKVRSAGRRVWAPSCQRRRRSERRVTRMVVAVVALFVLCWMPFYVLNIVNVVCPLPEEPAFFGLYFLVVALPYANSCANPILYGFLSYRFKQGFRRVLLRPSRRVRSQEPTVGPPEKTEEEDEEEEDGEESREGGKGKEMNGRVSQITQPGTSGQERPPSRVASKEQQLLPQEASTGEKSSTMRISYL
T5 sequence (P31391 whole entry): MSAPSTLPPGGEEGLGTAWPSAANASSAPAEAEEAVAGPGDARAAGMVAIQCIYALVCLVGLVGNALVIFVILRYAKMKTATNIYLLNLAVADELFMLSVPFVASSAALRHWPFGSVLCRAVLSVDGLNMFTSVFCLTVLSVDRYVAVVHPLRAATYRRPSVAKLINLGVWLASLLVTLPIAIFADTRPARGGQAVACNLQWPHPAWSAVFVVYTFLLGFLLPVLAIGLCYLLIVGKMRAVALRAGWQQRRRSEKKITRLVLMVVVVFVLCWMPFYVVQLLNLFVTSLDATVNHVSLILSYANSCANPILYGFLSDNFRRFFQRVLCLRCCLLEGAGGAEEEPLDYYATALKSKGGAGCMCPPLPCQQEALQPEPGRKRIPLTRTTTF
T3 sequence (P35346 whole entry): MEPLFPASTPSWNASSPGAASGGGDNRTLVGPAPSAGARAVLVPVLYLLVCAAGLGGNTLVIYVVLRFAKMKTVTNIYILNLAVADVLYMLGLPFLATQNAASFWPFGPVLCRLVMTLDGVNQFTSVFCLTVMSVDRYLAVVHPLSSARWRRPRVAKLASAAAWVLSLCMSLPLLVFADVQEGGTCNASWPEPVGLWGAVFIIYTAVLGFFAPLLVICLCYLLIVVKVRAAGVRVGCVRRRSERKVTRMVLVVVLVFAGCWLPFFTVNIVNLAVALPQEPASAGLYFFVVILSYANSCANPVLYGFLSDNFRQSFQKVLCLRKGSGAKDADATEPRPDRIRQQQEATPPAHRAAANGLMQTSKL

Row | Kd (hSSTR-2) [nM] | Kd (hSSTR-4) [nM] | Compound | Kd (hSSTR-3) [nM] | Kd (hSSTR-5) [nM] | Kd (hSSTR-1) [nM]
1 | 1.03 ± 0.26 | – | CN[C@H](Cc1ccccc1)C(=O)N[C@H]1CSSC[C@@H](C(=O)N[C@H](C(N)=O)[C@@H](C)O)NC(=O)[C@H]([C@@H](C)O)NC(=O)[C@H](CCCCN)NC(=O)[C@@H](Cc2c[nH]c3ccccc23)NC(=O)[C@H](Cc2ccccc2)NC1=O [Example 1, NMeDPhe-cyclo(Cys-Phe-DTrp-Lys-Thr-Cys)-Thr-NH2] | 17.9 ± 2.5 | 4.89 ± 1.4 | 316 ± 11
2 | 13.2 ± 3.85 | > 1000 | C[C@@H](O)[C@H](NC(=O)[C@@H]1CSSC[C@H](NC(=O)[C@H](N)Cc2ccccc2)C(=O)N(C)[C@@H](Cc2ccccc2)C(=O)N[C@H](Cc2c[nH]c3ccccc23)C(=O)N[C@@H](CCCCN)C(=O)N[C@@H]([C@@H](C)O)C(=O)N1)C(N)=O [Example 3, DPhe-cyclo(Cys-NMePhe-DTrp-Lys-Thr-Cys)-Thr-NH2] | 830 ± 86 | – | > 1000
3 | 1.84 ± 0.21 | > 1000 | C[C@@H](O)[C@H](NC(=O)[C@@H]1CSSC[C@H](NC(=O)[C@H](N)Cc2ccccc2)C(=O)N[C@@H](Cc2ccccc2)C(=O)N[C@H](Cc2c[nH]c3ccccc23)C(=O)N(C)[C@@H](CCCCN)C(=O)N[C@@H]([C@@H](C)O)C(=O)N1)C(N)=O [Example 5, DPhe-cyclo(Cys-Phe-DTrp-NMeLys-Thr-Cys)-Thr-NH2] | – | – | –
4 | 14.8 ± 1.53 | 182 | C[C@@H](O)[C@@H]1NC(=O)[C@H](CCCCN)NC(=O)[C@@H](Cc2c[nH]c3ccccc23)NC(=O)[C@H](Cc2ccccc2)NC(=O)[C@@H](NC(=O)[C@H](N)Cc2ccccc2)CSSC[C@@H](C(=O)N(C)[C@H](C(N)=O)[C@@H](C)O)NC1=O [Example 8, DPhe-cyclo(Cys-Phe-DTrp-Lys-Thr-Cys)-NMeThr-NH2] | 124 ± 11.7 | – | > 1000
5 | 0.15 ± 0.08 | > 1000 | C[C@@H](O)[C@H](NC(=O)[C@@H]1CSSC[C@H](NC(=O)[C@H](N)Cc2ccccc2)C(=O)N[C@@H](Cc2ccccc2)C(=O)N[C@H](Cc2c[nH]c3ccccc23)C(=O)N[C@@H](CCCCN)C(=O)N[C@@H]([C@@H](C)O)C(=O)N1)C(N)=O [Example 9, DPhe-cyclo(Cys-Phe-DTrp-Lys-Thr-Cys)-Thr-NH2] | 11.8 ± 0.9 | – | 761
6 | 9.74 ± 1.87 | – | CN[C@@H](Cc1ccc(O)cc1)C(=O)N[C@H]1CSSC[C@@H](C(=O)N[C@H](C(N)=O)[C@@H](C)O)NC(=O)[C@H]([C@@H](C)O)NC(=O)[C@H](CCCCN)NC(=O)[C@@H](Cc2c[nH]c3ccccc23)NC(=O)[C@H](Cc2ccccc2)NC1=O [Example 10, NMeTyr-cyclo(Cys-Phe-DTrp-Lys-Thr-Cys)-Thr-NH2] (H-[NMeY]CF[dW]KTCT-NH2; disulfide 2-7; N-terminus assumed) | – | – | 811 ± 188
7 | – | – | C[C@@H](O)[C@H](NC(=O)[C@@H]1CSSC[C@H](NC(=O)[C@@H](N)Cc2ccc(O)cc2)C(=O)N(C)[C@@H](Cc2ccccc2)C(=O)N[C@H](Cc2c[nH]c3ccccc23)C(=O)N[C@@H](CCCCN)C(=O)N[C@@H]([C@@H](C)O)C(=O)N1)C(N)=O [Example 12, Tyr-cyclo(Cys-NMePhe-DTrp-Lys-Thr-Cys)-Thr-NH2] (H-YC[NMeF][dW]KTCT-NH2; disulfide 2-7; N-terminus assumed) | 94.2 ± 16.7 | – | 653 ± 245

Row | Compound | Kd (hSSTR-2) [nM] | Kd (hSSTR-4) [nM] | Kd (hSSTR-3) [nM] | Kd (hSSTR-5) [nM] | Kd (hSSTR-1) [nM]
8 | C[C@@H](O)[C@H](NC(=O)[C@@H]1CSSC[C@H](N(C)C(=O)[C@@H](N)Cc2ccc(O)cc2)C(=O)N[C@@H](Cc2ccccc2)C(=O)N[C@H](Cc2c[nH]c3ccccc23)C(=O)N[C@@H](CCCCN)C(=O)N[C@@H]([C@@H](C)O)C(=O)N1)C(N)=O [Example 11, Tyr-cyclo(NMeCys-Phe-DTrp-Lys-Thr-Cys)-Thr-NH2] (H-Y[NMeC]F[dW]KTCT-NH2; disulfide 2-7; N-terminus assumed) | 8.96 ± 1.66 | – | 2.73 ± 2.43 | 114 | –
9 | C[C@@H](O)[C@H](NC(=O)[C@@H]1CSSC[C@H](NC(=O)[C@@H](N)Cc2ccc(O)cc2)C(=O)N[C@@H](Cc2ccccc2)C(=O)N(C)[C@H](Cc2c[nH]c3ccccc23)C(=O)N[C@@H](CCCCN)C(=O)N[C@@H]([C@@H](C)O)C(=O)N1)C(N)=O [Example 13, Tyr-cyclo(Cys-Phe-NMeDTrp-Lys-Thr-Cys)-Thr-NH2] (H-YCF[dNMeW]KTCT-NH2; disulfide 2-7; N-terminus assumed) | 120 ± 22.2 | – | – | – | 1000
10 | C[C@@H](O)[C@H](NC(=O)[C@@H]1CSSC[C@H](NC(=O)[C@@H](N)Cc2ccc(O)cc2)C(=O)N[C@@H](Cc2ccccc2)C(=O)N[C@H](Cc2c[nH]c3ccccc23)C(=O)N(C)[C@@H](CCCCN)C(=O)N[C@@H]([C@@H](C)O)C(=O)N1)C(N)=O [Example 14, Tyr-cyclo(Cys-Phe-DTrp-NMeLys-Thr-Cys)-Thr-NH2] (H-YCF[dW][NMeK]TCT-NH2; disulfide 2-7; N-terminus assumed) | 14.2 ± 3.12 | – | 51 ± 6.93 | – | 956 ± 43
11 | C[C@@H](O)[C@H](NC(=O)[C@@H]1CSSC[C@H](NC(=O)[C@@H](N)Cc2ccc(O)cc2)C(=O)N[C@@H](Cc2ccccc2)C(=O)N[C@H](Cc2c[nH]c3ccccc23)C(=O)N[C@@H](CCCCN)C(=O)N[C@@H]([C@@H](C)O)C(=O)N1C)C(N)=O [Example 16, Tyr-cyclo(Cys-Phe-DTrp-Lys-Thr-NMeCys)-Thr-NH2] (H-YCF[dW]KT[NMeC]T-NH2; disulfide 2-7; N-terminus assumed) | – | 321 | – | – | 1260
12 | C[C@@H](O)[C@@H]1NC(=O)[C@H](CCCCN)NC(=O)[C@@H](Cc2c[nH]c3ccccc23)NC(=O)[C@H](Cc2ccccc2)NC(=O)[C@@H](NC(=O)[C@@H](N)Cc2ccc(O)cc2)CSSC[C@@H](C(=O)N(C)[C@H](C(N)=O)[C@@H](C)O)NC1=O [Example 17, Tyr-cyclo(Cys-Phe-DTrp-Lys-Thr-Cys)-NMeThr-NH2] (H-YCF[dW]KTC[NMeT]-NH2; disulfide 2-7; N-terminus assumed) | 26.2 ± 10.3 | 353 | 535 ± 200 | – | 611 ± 3.5
13 | C[C@@H](O)[C@H](NC(=O)[C@@H]1CSSC[C@H](NC(=O)[C@@H](N)Cc2ccc(O)cc2)C(=O)N[C@@H](Cc2ccccc2)C(=O)N[C@H](Cc2c[nH]c3ccccc23)C(=O)N[C@@H](CCCCN)C(=O)N[C@@H]([C@@H](C)O)C(=O)N1)C(N)=O [Example 18, Tyr-cyclo(Cys-Phe-DTrp-Lys-Thr-Cys)-Thr-NH2] (H-YCF[dW]KTCT-NH2; disulfide 2-7; N-terminus assumed) | 10.3 ± 3.53 | – | 18.2 ± 4.21 | – | 1000
